Reference: patent publication US20090131519A1 (priority 2005, published 2009)

Tests used:
[1] = system: Fusarium fungi; test: Field trial, winter wheat "Slade", Ulhówek (Poland) 2004: natural Fusarium ear infection, DON and ZEA content of grains (HPLC/MS), grain yield; type: in vivo; conditions: for ZEA content of the grains / Infection (ears infected by Fusarium fungi) / Grain yield: dose prohexadione-Ca 50, metconazole 90; for ZEA content of the grains: relative to untreated = 100% (0.073 mg per kg of harvested grains); for Infection (ears infected by Fusarium fungi): relative to untreated = 100% (4.5% of the ears infected), assessed Jul. 22, 2004; for Grain yield: relative to untreated = 100% (8.6 t/ha)
[2] = system: Fusarium graminearum (strain 4528); conditions: cited from earlier work
[3] = system: Fusarium graminearum; conditions: in vivo; cited from earlier work
[4] = system: Fusarium fungi; test: Field trial, winter wheat "Ritmo", Gronau 2004: natural Fusarium ear infection, DON and NIV content of grains (HPLC/MS), grain yield; type: in vivo
[5] = system: mildew; conditions: pre-treatment; cited from earlier work

| Compound | ZEA content of the grains ([1]; treatment date 10.6.) [%] | Infection (ears infected by Fusarium fungi) ([1]; treatment date 10.6.) [%] | Grain yield ([1]; treatment date 10.6.) [%] | ZEA content of the grains ([1]; treatment date 19.6.) [%] | Infection (ears infected by Fusarium fungi) ([1]; treatment date 19.6.) [%] | Grain yield ([1]; treatment date 19.6.) [%] | Inhibition of mycelium growth [2] | Inhibition of the formation of 3-acetyldeoxynivalenol (3-ADON) [2] | other results |
| --- | --- | --- | --- | --- | --- | --- | --- | --- | --- |
| CC1(C)CCC(Cc2ccc(Cl)cc2)C1(O)Cn1cncn1 (centres unmarked) [metconazole, reference compound] | 53 | 18 | 108 | 33 | 18 | 110 |  |  |  |
| COc1ccc(C(O)(c2cncnc2)C2CC2)cc1 (centres unmarked) [ancymidole] |  |  |  |  |  |  | only weakly | only weakly |  |
| C[N+](C)(C)CCCl.[Cl-] [chlormequat chloride, 2-chloroethyltrimethylammonium chloride] |  |  |  |  |  |  |  |  | Effect on the susceptibility of wheat ears to infection with Fusarium graminearum [3]: no direct effect |
| CC(C)C(O)(c1ccc(OC(F)(F)F)cc1)c1cncnc1 (centres unmarked) [flurprimidole] |  |  |  |  |  |  | only weakly | only weakly |  |
| prohexadione-calcium | 23 | 78 | 98 | 32 | 51 | 105 |  |  | Content of the grains of NIV ([4]; in vivo): 75%; Content of the grains of DON ([4]; relative to untreated = 100% (22.4 mg of DON per kg of harvested grains), 50 g/ha, Jun. 7, 2004): 81%; Grain yield ([4]; relative to untreated = 100% (2.9 t/ha), 50 g/ha, Jun. 7, 2004): 109%; Infection (ears infected by Fusarium fungi) ([4]; relative to untreated = 100% (43.8% of the ears infected), 50 g/ha applied Jun. 7, 2004 at beginning of flowering, assessed Jun. 28, 2004): 91%; DON content of the grains (statement in words) ([1]; winter wheat Slade, Ulhówek 2004, no DON figures printed): reduces the DON and ZEA contents considerably; Reduction of infection of wheat with mildew [5]: cannot be reduced |
